# From US20080234345A1, “METHOD FOR REDUCING OR ALLEVIATING INFLAMMATION IN THE DIGESTIVE TRACT” (Gene Logic Inc., priority 2006, published 2008)
# Experiments:
# [1] = system: NF-κB; details: in CD; Guidi et al. (2005); cited from earlier work
# [2] = system: CD; details: cited from earlier work
# [3] = system: UC; details: cited from earlier work
# [4] = system: DSS-induced colitis in Balb/c mice; test: DSS-induced colitis in Balb/c mice (Example 7); assay type: in vivo; details: s.c. b.i.d., GL1001 300 mg/kg, sulfasalazine 150 mg/kg
# Method: A study was designed with six groups of Balb/c mice: naïve control, DSS followed by vehicle, DSS followed by GL1001 30 mg/kg/day, DSS followed by GL1001 100 mg/kg/day, DSS followed by GL1001 300 mg/kg/day, and DSS followed by sulfasalazine 150 mg/kg/day. Administration of DSS was via drinking water, from day 1 to day 6 of the study. […] Administration of vehicle, GL1001 and sulfasalazine was subcutaneous, twice daily, from day 6 until termination of the study (day 16).
# Body weight of each animal was measured at days 1, 3 and 5 (pre-initiation of GL1001 or sulfasalazine treatment) and at days 7, 9, 11 and 13 (post-initiation of GL1001 or sulfasalazine treatment). On these same days, disease activity measurements were recorded, including: • (a) rectal prolapse (0=no prolapse, 1=partial prolapse, 2=moderate prolapse, 3=full prolapse); • (b) stool consistency (0=solid pellet, 1=semi-solid, 2=soft stool, 3=diarrhea); and • (c) fecal occult blood (0=no blood present, 1=occult blood, 2=gross blood).
# At termination of the study, colon length was determined and histological analysis was conducted as in Example 6.
Compound,NF-κB activity [1],"induction of remission rate ([2]; CD, after a single dose)","response rate ([2]; CD, after a single dose)","fistula responds (closes), patients ([2]; fistulizing CD)",patients who develop an abscess ([2]; in vivo),response rates [3],fecal occult blood ([4]; day 7),stool consistency ([4]; day 7),percentage weight loss ([4]; day 9),rectal prolapse ([4]; day 9),distal colon crypt score [4],distal colon inflammation score [4],distal colon total histopathology score [4],reduction in colon length [4]
Infliximab: anti-TNFα monoclonal antibody,decrease,50%,80%,68%,12%,50-70%,,,,,,,,
"O=C(O)c1cc(/N=N/c2ccc(S(=O)(=O)Nc3ccccn3)cc2)ccc1O [sulfasalazine, reference compound]",,,,,,,reduces,No significant effect,No significant effect,reduces,reduces,reduces,reduces,inhibits reduction
